Like-named read-outs stand apart in the source and are kept apart here.
Test system: Hyperlipidemic Hamster
Assay: In Vivo Assay of Hypolipidemic Agents Using the Hyperlipidemic Hamster
Settings: 7 days, percent change versus control, negative = lowering; for % Reduction (in vivo) Cholest. Esters / % Reduction (in vivo) Serum Cholest. / change in vivo at 50 mg/kg: 50 mg/kg once daily oral; for change in vivo at 50 mg/kg / change in vivo at 10 mg/kg / change in vivo at 25 mg/kg / change in vivo at 3 mg/kg: Mesocricetus auratus, po, 168 h; for change in vivo at 10 mg/kg: 10 mg/kg once daily oral; for change in vivo at 25 mg/kg: 25 mg/kg once daily oral; for change in vivo at 3 mg/kg: 3 mg/kg once daily oral
Experimental: In Vivo Assay of Hypolipidemic Agents Using the Hyperlipidemic Hamster
Hamsters are separated into groups of six and given a controlled cholesterol diet (Purina Chow #5001 containing 0.5% cholesterol) for seven days. Diet consumption is monitored to determine dietary cholesterol exposure in the face of test compounds. The animals are dosed with the test compound once daily beginning with the initiation of diet. Dosing is by oral gavage of 0.2mL of corn oil alone (control group) or solution (or suspension) of test compound in corn oil. All animals roodbund or in poor physical condition are euthanized. After seven days, the animals are anesthetized by IM injection of ketamine and sacrificed by decapitation. Blood is collected into vacutainer tubes containing EDTA for plasma lipid analysis and the liver excised for tissue lipid analysis. Data is reported as percent reduction of lipid versus control.
Using the test procedures described above, the following in vitro and in vivo data were obtained for the preferred compounds, which are referred to in the following table by the corresponding example numbers. For the in vitro ACAT data, negative percent inhibition denotes apparent stimulation,while positive numbers denote inhibition. For the in vivo results, data is reported as percent change versus control, therefore, negative numbers indicate a positive lipid-lowering effect.

[1] = read-out: % Reduction (in vivo) Cholest. Esters
[2] = read-out: % Reduction (in vivo) Serum Cholest.

Compound: COc1ccc([C@@H]2[C@@H](CCCc3ccccc3)C(=O)N2c2ccc(OC)cc2)cc1 (relative stereo) [Example 5W]
- % Reduction (in vivo) Cholest. Esters: -19%
- % Reduction (in vivo) Serum Cholest.: 0%

Compound: COc1ccc([C@@H]2[C@@H](CCCCCCc3ccccc3)C(=O)N2c2ccc(OC)cc2)cc1 (relative stereo) [Example 5Y]
- change in vivo at 50 mg/kg [1]: 0%
- change in vivo at 50 mg/kg [2]: -29%

Compound: COc1ccc([C@@H]2[C@@H](OCCc3ccccc3)C(=O)N2c2ccc(OC)cc2)cc1 (relative stereo) [Example 5Z]
- change in vivo at 50 mg/kg [1]: 0%
- change in vivo at 50 mg/kg [2]: -16%

Compound: COc1ccc([C@@H]2[C@@H](CCCc3ccccc3)C(=O)N2c2ccc(OC)cc2)cc1 (relative stereo) [Example 5]
- % Reduction (in vivo) Cholest. Esters: -77.5%
- % Reduction (in vivo) Serum Cholest.: -29%
- change in vivo at 10 mg/kg [1]: -60%
- change in vivo at 10 mg/kg [2]: -21%
- change in vivo at 25 mg/kg [1]: -72%
- change in vivo at 25 mg/kg [2]: -20%

Compound: COc1ccc([C@@H]2[C@@H](CCCc3ccccc3)C(=O)N2c2ccc(I)cc2)cc1 (relative stereo) [Example 7AA]
- change in vivo at 50 mg/kg [1]: -42%
- change in vivo at 50 mg/kg [2]: -10%

Compound: CCCCCCCCCC[C@H]1C(=O)N(c2ccc(OC)cc2)[C@@H]1c1ccc(OC)cc1 (relative stereo) [Example 7AG]
- change in vivo at 50 mg/kg [1]: -15%
- change in vivo at 50 mg/kg [2]: 0%

Compound: COc1ccc([C@@H]2[C@@H](/C=C\Cc3ccccc3)C(=O)N2c2ccc(OC)cc2)cc1 (relative stereo) [Example 7AI]
- change in vivo at 3 mg/kg [1]: -46%
- change in vivo at 3 mg/kg [2]: -11%
- change in vivo at 10 mg/kg [1]: -73%
- change in vivo at 10 mg/kg [2]: -20%
- change in vivo at 50 mg/kg [1]: -95%
- change in vivo at 50 mg/kg [2]: -63%

Compound: COc1ccc([C@@H]2[C@@H](/C=C/Cc3ccccc3)C(=O)N2c2ccc(OC)cc2)cc1 (relative stereo) [Example 7AJ]
- change in vivo at 50 mg/kg [1]: -18%
- change in vivo at 50 mg/kg [2]: 0%

Compound: COc1ccc([C@@H]2[C@@H](CCCC3CCCCC3)C(=O)N2c2ccc(OC)cc2)cc1 (relative stereo) [Example 7AK]
- change in vivo at 50 mg/kg [1]: -28%
- change in vivo at 50 mg/kg [2]: 12%

Compound: COc1ccc([C@@H]2[C@H](Oc3ccc4ccccc4c3)C(=O)N2c2ccc(OC)cc2)cc1 (relative stereo) [Example 7AL]
- change in vivo at 50 mg/kg [1]: 0%
- change in vivo at 50 mg/kg [2]: -13%

Compound: COc1ccc([C@@H]2[C@@H](CCCCCc3ccccc3)C(=O)N2c2ccc(OC)cc2)cc1 (relative stereo) [Example 7AM]
- change in vivo at 50 mg/kg [1]: -70%
- change in vivo at 50 mg/kg [2]: -24%

Compound: COc1ccc([C@@H]2[C@@H](CCOc3ccc([N+](=O)[O-])cc3)C(=O)N2c2ccccc2)cc1 (relative stereo) [Example 7AN]
- change in vivo at 50 mg/kg [1]: -42%
- change in vivo at 50 mg/kg [2]: -12%

Compound: COc1ccc([C@@H]2[C@@H](Cc3ccc4ccccc4c3)C(=O)N2c2ccccc2)cc1 (relative stereo) [Example 7AO]
- change in vivo at 50 mg/kg [1]: -90%
- change in vivo at 50 mg/kg [2]: -41%

Compound: COc1ccc(OCC[C@H]2C(=O)N(c3ccccc3)[C@@H]2c2ccc(OC)cc2)cc1 (relative stereo) [Example 7AP]
- change in vivo at 50 mg/kg [1]: -82%
- change in vivo at 50 mg/kg [2]: -24%

Compound: COc1ccc([C@@H]2[C@H](Cc3ccc4ccccc4c3)C(=O)N2c2ccccc2)cc1 (relative stereo) [Example 7AQ]
- change in vivo at 50 mg/kg [1]: -91%
- change in vivo at 50 mg/kg [2]: -52%

Compound: COc1ccc([C@@H]2[C@@H](CCCc3ccccc3)C(=O)N2c2ccc3c(c2)CCC3)cc1 (relative stereo) [Example 7AR]
- change in vivo at 50 mg/kg [1]: -88%
- change in vivo at 50 mg/kg [2]: -32%

Compound: COc1ccc([C@@H]2[C@@H](CCCc3ccccc3)C(=O)N2c2cccc3c2CCCC3)cc1 (relative stereo) [Example 7AS]
- change in vivo at 50 mg/kg [1]: -20%
- change in vivo at 50 mg/kg [2]: 0%

Compound: COc1ccc([C@@H]2[C@@H](CCCc3ccccc3)C(=O)N2c2cnc3ccccc3c2)cc1 (relative stereo) [Example 7AT]
- change in vivo at 50 mg/kg [1]: -32%
- change in vivo at 50 mg/kg [2]: -10%

From patent US5688787A, “Substituted β-lactam compounds useful as hypochlesterolemic agents and processes for the preparation thereof” (priority 1996, dated 1997)
